Source: patent US6969721B2, “Tricyclic-2-pyridone compounds useful as HIV reverse transcriptase inhibitors” (Bristol-Myers Squibb Pharma, priority 2000, dated 2005)

| Structure (SMILES) | melting point [°C] |
| --- | --- |
| O=c1[nH]ccc2c1Nc1ccc(Cl)cc1C2(CNC1CC1)C(F)(F)F (centres unmarked) [Example 32, 7-Chloro-5-(cyclopropylaminomethyl)-5-trifluoromethyl-5,10-dihydrobenzo[b]-1,7-naphthyridin-1(2H)-one] | 242 to 245 |
| CC(C)SCC1(C(F)(F)F)c2cc(Cl)ccc2Nc2c1cc[nH]c2=O (centres unmarked) [Example 44, 7-Chloro-5-(i-propylsulfanylmethyl)-5-trifluoromethyl-5,10-dihydrobenzo[b]-1,7-naphthyridin-1(2H)-one] | 220 to 221 |
| CC(C)NCC1(C(F)(F)F)c2cc(Cl)ccc2Nc2c1cc[nH]c2=O (centres unmarked) [Example 30, 7-Chloro-5-(i-propylaminomethyl)-5-trifluoromethyl-5,10-dihydrobenzo[b]-1,7-naphthyridin-1(2H)-one] | 235 to 240 |
| CC(C)N(C)CC1(C(F)(F)F)c2cc(Cl)ccc2Nc2c1cc[nH]c2=O (centres unmarked) [Example 31, 7-Chloro-5-(N-methyl-N-i-propylaminomethyl)-5-trifluoromethyl-5,10-dihydrobenzo[b]-1,7-naphthyridin-1(2H)-one] | 105 to 110 |
| CC(C)OCC1(C(F)(F)F)c2cc(Cl)ccc2Nc2c1cc[nH]c2=O (centres unmarked) [Example 28, 7-Chloro-5-(i-propoxymethyl)-5-trifluoromethyl-5,10-dihydrobenzo[b]-1,7-naphthyridin-1(2H)-one] | 185 to 190 |
| CC(C)SCC1(C(F)(F)F)c2cc(F)ccc2Nc2c1cc[nH]c2=O (centres unmarked) [Example 45, 7-Fluoro-5-(i-propylsulfanylmethyl)-5-trifluoromethyl-5,10-dihydrobenzo[b]-1,7-naphthyridin-1(2H)-one] | 215 to 216 |
| CC(C)CNCC1(C(F)(F)F)c2cc(Cl)ccc2Nc2c1cc[nH]c2=O (centres unmarked) [Example 35, 7-Chloro-5-(i-butylaminomethyl)-5-trifluoromethyl-5,10-dihydrobenzo[b]-1,7-naphthyridin-1(2H)-one] | 210 to 215 |
| O=c1[nH]ccc2c1Nc1ccc(Cl)cc1C2(C#CC1CC1)C(F)(F)F (centres unmarked) [Example 21, 7-Chloro-5-cyclopropylethynyl-5-trifluoromethyl-5,10-dihydrobenzo[b]-1,7-naphthyridin-1(2H)-one] | 247 to 250 |
| O=c1[nH]ccc2c1Nc1ccc(Cl)cc1C2(CNC1CC1)C(F)(F)F (centres unmarked) [Example 22, 7-Chloro-5-(N-cyclopropylaminomethyl)-5-trifluoromethyl-5,10-dihydrobenzo[b]-1,7-naphthyridin-1(2H)-one] | 230 to 235 |
| CCCCC1(CO)c2cc(Cl)ccc2Nc2c1cc[nH]c2=O (centres unmarked) [Example 64, 7-Chloro-5-(n-butyl)-5-(hydroxymethyl)-5,10-dihydrobenzo[b]-1,7-naphthyridin-1(2H)-one] | 260 to 265 |
| O=c1[nH]ccc2c1Nc1ccc(Cl)cc1C2(CNC1CCC1)C(F)(F)F (centres unmarked) [Example 34, 7-Chloro-5-(cyclobutylaminomethyl)-5-trifluoromethyl-5,10-dihydrobenzo[b]-1,7-naphthyridin-1(2H)-one] | 250 to 254 |
| CC(C)(C)SCC1(C(F)(F)F)c2cc(Cl)ccc2Nc2c1cc[nH]c2=O (centres unmarked) [Example 46, 7-Chloro-5-(t-butylsulfanylmethyl)-5-trifluoromethyl-5,10-dihydrobenzo[b]-1,7-naphthyridin-1(2H)-one] | 247 to 249 |
| COCCC1(C(F)(F)F)c2cc(Cl)ccc2Nc2c1cc[nH]c2=O (centres unmarked) [Example 29, 7-Chloro-5-(2-methoxyethyl)-5-trifluoromethyl-5,10-dihydrobenzo[b]-1,7-naphthyridin-1(2H)-one] | 268 to 271 |
| O=c1[nH]ccc2c1Nc1ccc(Cl)cc1C2(Cc1ccccn1)C(F)(F)F (centres unmarked) [Example 19, 7-Chloro-5-(2-pyridylmethyl)-5-trifluoromethyl-5,10-dihydrobenzo[b]-1,7-naphthyridin-1(2H)-one] | 270 to 275 |
| O=c1[nH]ccc2c1Nc1ccc(Cl)cc1C2(CO)C(F)(F)F (centres unmarked) [Example 23, 7-Chloro-5-hydroxymethyl-5-trifluoromethyl-5,10-dihydrobenzo[b]-1,7-naphthyridin-1(2H)-one] | 270 to 275 |
| CC(C)OCC1(C(F)F)c2cc(Cl)ccc2Nc2c1cc[nH]c2=O (centres unmarked) [Example 64b, 7-Chloro-5-(i-propoxymethyl)-5-difluoromethyl-5,10-dihydrobenzo[b]-1,7-naphthyridin-1(2H)-one] | 138 to 142 |
| O=c1[nH]ccc2c1Nc1ccc(Cl)cc1C2(CCC1CC1)C(F)(F)F (centres unmarked) [Example 20, 7-Chloro-5-(2-cyclopropylethyl)-5-trifluoromethyl-5,10-dihydrobenzo[b]-1,7-naphthyridin-1(2H)-one] | 220 to 222 |
| CC(C)OCC1(C(F)(F)F)c2cc(Cl)ccc2Nc2c1cc[nH]c2=O (centres unmarked) [Example 36, 7-Chloro-5-(i-propoxymethyl)-5-trifluoromethyl-5,10-dihydrobenzo[b]-1,7-naphthyridin-1(2H)-one] | 195 to 197 |

The next lines start with the values.

| melting point [°C] | Structure (SMILES) |
| --- | --- |
| 240 to 245 | CCOCCC1(C(F)(F)F)c2cc(Cl)ccc2Nc2c1cc[nH]c2=O (centres unmarked) [Example 62, 7-Chloro-5-(ethoxyethyl)-5-trifluoromethyl-5,10-dihydrobenzo[b]-1,7-naphthyridin-1(2H)-one] |
| 198 to 200 | CCCCC1(C(F)F)c2cc(Cl)ccc2Nc2c1cc[nH]c2=O (centres unmarked) [Example 64a, 7-Chloro-5-(n-butyl)-5-difluoromethyl-5,10-dihydrobenzo[b]-1,7-naphthyridin-1(2H)-one] |
| 267 to 270 | CCCCC1(C(C)(F)F)c2cc(F)ccc2Nc2c1cc[nH]c2=O (centres unmarked) [Example 66, 5-(n-Butyl)-5-(1,1-difluoroethyl)-7-Fluoro-5,10-dihydrobenzo[b]-1,7-naphthyridin-1(2H)-one] |
| 132.2 to 134.7 | CCCCC1(C(C)(F)F)c2cc(C#N)ccc2Nc2c1cc[nH]c2=O (centres unmarked) [Example 67, 7-Cyano-5-(n-butyl)-5-(1,1-difluoroethyl)-5,10-dihydrobenzo[b]-1,7-naphthyridin-1(2H)-one] |
| 177 to 179 | CCCCC1(C)c2cc(Cl)ccc2Nc2c1cc[nH]c2=O (centres unmarked) [Example 61a, 7-Chloro-5-(n-butyl)-5-methyl-5,10-dihydrobenzo[b]-1,7-naphthyridin-1(2H)-one] |
| 162 to 165 | CCCOCC1(C(F)(F)F)c2cc(Cl)ccc2Nc2c1cc[nH]c2=O (centres unmarked) [Example 27, 7-Chloro-5-(n-propoxymethyl)-5-trifluoromethyl-5,10-dihydrobenzo[b]-1,7-naphthyridin-1(2H)-one] |
| 182 to 185 | CCCCC1(C#N)c2cc(Cl)ccc2Nc2c1cc[nH]c2=O (centres unmarked) [Example 63, 7-Chloro-5-(n-butyl)-5-cyano-5,10-dihydrobenzo[b]-1,7-naphthyridin-1(2H)-one] |
| 245 to 248 | CCCCC1(C(F)(F)F)c2cc(Cl)ccc2Nc2c1cc[nH]c2=O (centres unmarked) [Example 18, 5-Butyl-7-chloro-5-trifluoromethyl-5,10-dihydrobenzo[b]-1,7-naphthyridin-1(2H)-one] |
| 243 to 245 | CCCNCC1(C(F)(F)F)c2cc(Cl)ccc2Nc2c1cc[nH]c2=O (centres unmarked) [Example 33, 7-Chloro-5-(n-propylaminomethyl)-5-trifluoromethyl-5,10-dihydrobenzo[b]-1,7-naphthyridin-1(2H)-one] |
| 120 to 122 | CCCCC1(C(C)(F)F)c2cc(Cl)ccc2Nc2c1cc[nH]c2=O (centres unmarked) [Example 65, 7-Chloro-5-(n-butyl)-5-(1,1-difluoroethyl)-5,10-dihydrobenzo[b]-1,7-naphthyridin-1(2H)-one] |
| 265 to 267 | CCOCC1(C(C)(F)F)c2cc(Cl)ccc2Nc2c1cc[nH]c2=O (centres unmarked) [Example 68, 7-Chloro-5-(ethoxymethyl)-5-(1,1-difluoroethyl)-5,10-dihydrobenzo[b]-1,7-naphthyridin-1(2H)-one] |
